What was measured:
morningglory = experiment: Test A pre-/postemergence herbicide test; assay type: in vivo, Ipomoea spp.
How it was run: (§1)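 Pre: seeded sandy loam, directed soil spray, compound in non-phytotoxic solvent + surfactant. Post: 1–2-leaf plants (2–10 cm), sprayed to runoff. Greenhouse ~10 d; visual injury vs untreated, 0–100 scale.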

velvetleaf = experiment: Test A pre-/postemergence herbicide test; assay type: in vivo, Abutilon theophrasti
How it was run: as §1

rice [1] = experiment: Test B pre-/postemergence herbicide test; assay type: in vivo, Oryza sativa; conditions: 500 g ai/ha; visual rating 0-100, 0 no effect, 100 complete control; preemergence
How it was run: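 Greenhouse pot assay with simultaneous preemergence (treated seed) and postemergence (2–18 cm seedlings) applications of surfactant-containing, non-phytotoxic solvent formulations. Response scored visually 13–15 days later on a 0–100 scale, 100 meaning complete control.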

cocklebur = experiment: Test C pre-/postemergence herbicide test; assay type: in vivo, Xanthium strumarium; conditions: preemergence; for Plant response rating, Cocklebur: visual, 12 to 14 days
How it was run: (§2)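 Visual injury scores run from 0 (no effect) to 100 (complete control), assessed relative to untreated controls 12 to 14 days after treatment in the greenhouse. Chemicals were formulated in a non-phytotoxic solvent mixture with surfactant and applied to soil after planting or to emerged plants at the 1- to 4-leaf stage.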

lambsquarters = experiment: Test C pre-/postemergence herbicide test; assay type: in vivo, Chenopodium album; conditions: preemergence
How it was run: as §2

yellow nutsedge = experiment: Test C pre-/postemergence herbicide test; assay type: in vivo, Cyperus esculentus; conditions: preemergence
How it was run: as §2

common ragweed = experiment: Test C pre-/postemergence herbicide test; assay type: in vivo, Ambrosia elatior; set-up: key to Plant response rating, Ragweed: 0 = no effect, 100 = complete control; conditions: preemergence
How it was run: as §2

soybean = experiment: Test C pre-/postemergence herbicide test; assay type: in vivo, Glycine max; conditions: preemergence
How it was run: as §2

[2] = tested on: common (oilseed) sunflower; experiment: Test C pre-/postemergence herbicide test; assay type: in vivo, Helianthus annuus; conditions: preemergence
How it was run: as §2

rice [3] = experiment: Test C flooded paddy test; assay type: in vivo, Oryza sativa
How it was run: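 Postemergence sprays applied to plants 2 to 18 cm tall (1- to 4-leaf stage); paddy species grown to 2-leaf stage under flooding. After 12 to 14 days in greenhouse, visual rating versus untreated controls on 0–100 scale (0 no effect, 100 complete control).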

[4] = Postemergence, 250 g ai/ha, 0 to 100 scale, 0 no effect, 100 complete control
[5] = Postemergence, 1000 g ai/ha, 0 to 100 scale, 0 no effect, 100 complete control
[6] = Preemergence, 1000 g ai/ha, visual rating, 0 to 100 scale (0 no effect, 100 complete control)
[7] = preemergence, 250 g ai/ha, visual injury, 0 to 100 scale (0 no effect, 100 complete control)
[8] = 125 g ai/ha, scale 0 (no effect) to 100 (complete control), visual, 12 to 14 days

CCn1nc(C(C)(C)C)cc1C(=O)Nc1cccc(SC)c1 [Compound 131]
Morningglory plant response rating (morningglory; [4]): 15
Plant response rating, Morningglory (morningglory; [5]): 15
Morningglory plant response rating (morningglory; [6]): 35
Morningglory plant response rating (morningglory; [7]): 15
Velvetleaf plant response rating (velvetleaf; [4]): 15
Plant response rating, Velvetleaf (velvetleaf; [5]): 10
Velvetleaf plant response rating (velvetleaf; [6]): 60
Velvetleaf plant response rating (velvetleaf; [7]): 10
Plant response rating, Rice (rice [1]): 50
Plant response rating (0 = no effect, 100 = complete control), Cocklebur (cocklebur; 62 g ai/ha): 0
Plant response rating, Cocklebur (cocklebur; 125 g ai/ha, scale 0 (no effect) to 100 (complete control)): 20
Plant response rating, Cocklebur (cocklebur; 250 g ai/ha, scale 0 to 100 (0 no effect, 100 complete control)): 25
Plant response rating (0 = no effect, 100 = complete control), Lambsquarters (lambsquarters; 62 g ai/ha): 95
Plant response rating, Lambsquarters (lambsquarters; [8]): 100
Plant response rating, Nutsedge, Yellow (yellow nutsedge; 31 g ai/ha, scale 0 to 100, last section of Table C): 0
Plant response rating (0 = no effect, 100 = complete control), Nutsedge, Yellow (yellow nutsedge; 62 g ai/ha): 0
Plant response rating, Nutsedge, Yellow (yellow nutsedge; [8]): 0
Plant response rating (0 = no effect, 100 = complete control), Ragweed (common ragweed; 62 g ai/ha): 40
Plant response rating, Ragweed (common ragweed; [8]): 50
Plant response rating (0 = no effect, 100 = complete control), Soybean (soybean; 62 g ai/ha): 0
Plant response rating, Soybean (soybean; [8]): 0
Plant response rating (0 = no effect, 100 = complete control), Sunflower ([2]; 62 g ai/ha): 0
Plant response rating, Sunflower [2, 8]: 0
Rice plant response rating (rice [3]; 62 g ai/ha, scale 0 to 100 (0 no effect, 100 complete control)): 0
Rice plant response rating (rice [3]; 125 g ai/ha, scale 0 to 100 (0 no effect, 100 complete control)): 0
Rice plant response rating (rice [3]; 250 g ai/ha, scale of 0 to 100, 0 is no effect, 100 is complete control): 0
Plant response rating, Rice (rice [3]; 500 g ai/ha, visual rating after 12 to 14 days, scale 0 to 100 (0 no effect, 100 complete control)): 10

Source: patent US20060069132A1, “Azolecarboxamide herbicides” (priority 2004, published 2006)
